Test results: the supplement of paper PMC10307832

How the values were obtained:
Experiment in all cases: relative viability (nuclei count vs DMSO), 5 days (fraction); higher = more cells survive
Sunitinib = compound: CCN(CC)CCNC(=O)c1c(C)[nH]c(/C=C2\C(=O)Nc3ccc(F)cc32)c1C [Sunitinib]
Method in brief: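 Five library-drug doses spaced by √10 were pinned onto vehicle-anchored 1536-well plates of lung cancer cell lines that had been kept overnight at 37 °C. Cells went 5 days without medium change, then were fixed, permeabilised and Hoechst-stained together, imaged at 4× and counted by MetaXpress. Viability is the ratio of treated-well to vehicle-well nuclei, taken as a median over plates. Plates required control CV below 25% and at least one doubling.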

Sunitinib + Trametinib = compound: CCN(CC)CCNC(=O)c1c(C)[nH]c(/C=C2\C(=O)Nc3ccc(F)cc32)c1C [Sunitinib] + CC(=O)Nc1cccc(-n2c(=O)n(C3CC3)c(=O)c3c(Nc4ccc(I)cc4F)n(C)c(=O)c(C)c32)c1 [Trametinib] (partner 0.02 µM)
Method in brief: (§1)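 Lung cancer cell lines were pin-tool dosed in 1536-well plates on the day after seeding, with either a lone drug or a fixed anchor-drug dose plus five library-drug doses (not always all listed) in √10 steps. Nuclei were counted on 4× images after 5 days. Relative viability is the ratio of treated-well to vehicle-well nuclei counts, with each value a median of duplicate plates.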

Sunitinib + Palbociclib = compound: CCN(CC)CCNC(=O)c1c(C)[nH]c(/C=C2\C(=O)Nc3ccc(F)cc32)c1C [Sunitinib] + CC(=O)c1c(C)c2cnc(Nc3ccc(N4CCNCC4)cn3)nc2n(C2CCCC2)c1=O [Palbociclib] (partner 0.5 µM)
Method in brief: as §1

Sunitinib + Luminespib = compound: CCN(CC)CCNC(=O)c1c(C)[nH]c(/C=C2\C(=O)Nc3ccc(F)cc32)c1C [Sunitinib] + CCNC(=O)c1noc(-c2cc(C(C)C)c(O)cc2O)c1-c1ccc(CN2CCOCC2)cc1 [Luminespib] (partner 0.01 µM)
Method in brief: as §1

Sunitinib + Foretinib = compound: CCN(CC)CCNC(=O)c1c(C)[nH]c(/C=C2\C(=O)Nc3ccc(F)cc32)c1C [Sunitinib] + COc1cc2c(Oc3ccc(NC(=O)C4(C(=O)Nc5ccc(F)cc5)CC4)cc3F)ccnc2cc1OCCCN1CCOCC1 [Foretinib] (partner 0.25 µM)
Method in brief: as §1

Sunitinib + OSI-027 = compound: CCN(CC)CCNC(=O)c1c(C)[nH]c(/C=C2\C(=O)Nc3ccc(F)cc32)c1C [Sunitinib] + COc1cccc2cc(-c3nc([C@H]4CC[C@H](C(=O)O)CC4)n4ncnc(N)c34)[nH]c12 [OSI-027] (partner 0.5 µM)
Method in brief: as §1

Sunitinib + Tozasertib = compound: CCN(CC)CCNC(=O)c1c(C)[nH]c(/C=C2\C(=O)Nc3ccc(F)cc32)c1C [Sunitinib] + Cc1cc(Nc2cc(N3CCN(C)CC3)nc(Sc3ccc(NC(=O)C4CC4)cc3)n2)n[nH]1 [Tozasertib] (partner 0.1 µM)
Method in brief: as §1

Sunitinib + Dasatinib = compound: CCN(CC)CCNC(=O)c1c(C)[nH]c(/C=C2\C(=O)Nc3ccc(F)cc32)c1C [Sunitinib] + Cc1nc(Nc2ncc(C(=O)Nc3c(C)cccc3Cl)s2)cc(N2CCN(CCO)CC2)n1 [Dasatinib] (partner 0.075 µM)
Method in brief: as §1

Sunitinib + Phenformin = compound: CCN(CC)CCNC(=O)c1c(C)[nH]c(/C=C2\C(=O)Nc3ccc(F)cc32)c1C [Sunitinib] + N=C(N)NC(=N)NCCc1ccccc1 [Phenformin] (partner 250 µM)
Method in brief: as §1

Sunitinib + AZD7762 = compound: CCN(CC)CCNC(=O)c1c(C)[nH]c(/C=C2\C(=O)Nc3ccc(F)cc32)c1C [Sunitinib] + NC(=O)Nc1cc(-c2cccc(F)c2)sc1C(=O)N[C@H]1CCCNC1 [AZD7762] (partner 0.2 µM)
Method in brief: as §1

Sunitinib + Pemetrexed = compound: CCN(CC)CCNC(=O)c1c(C)[nH]c(/C=C2\C(=O)Nc3ccc(F)cc32)c1C [Sunitinib] + Nc1nc2[nH]cc(CCc3ccc(C(=O)N[C@@H](CCC(=O)O)C(=O)O)cc3)c2c(=O)[nH]1 [Pemetrexed] (partner 0.2 µM)
Method in brief: as §1

Sunitinib + Decitabine = compound: CCN(CC)CCNC(=O)c1c(C)[nH]c(/C=C2\C(=O)Nc3ccc(F)cc32)c1C [Sunitinib] + Nc1ncn([C@H]2C[C@H](O)[C@@H](CO)O2)c(=O)n1 [Decitabine] (partner 2 µM)
Method in brief: as §1

Sunitinib + Vorinostat = compound: CCN(CC)CCNC(=O)c1c(C)[nH]c(/C=C2\C(=O)Nc3ccc(F)cc32)c1C [Sunitinib] + O=C(CCCCCCC(=O)Nc1ccccc1)NO [Vorinostat] (partner 1 µM)
Method in brief: as §1

Sunitinib + Olaparib = compound: CCN(CC)CCNC(=O)c1c(C)[nH]c(/C=C2\C(=O)Nc3ccc(F)cc32)c1C [Sunitinib] + O=C(c1cc(Cc2n[nH]c(=O)c3ccccc23)ccc1F)N1CCN(C(=O)C2CC2)CC1 [Olaparib] (partner 8 µM)
Method in brief: as §1

SW 900 was tested. Which relative viability (Sunitinib; 0.02 µM) did it give?
Its relative viability is 1.01.

What about the relative viability (Sunitinib; 0.06325 µM) of the same cell line?
The relative viability was 1.07.

What about the relative viability (Sunitinib; 0.2 µM) of the same cell line?
Its relative viability is 0.932.

What about the relative viability (Sunitinib; 0.6325 µM) of the same cell line?
The relative viability was 1.04.

What about the relative viability (Sunitinib; 2 µM) of the same cell line?
The relative viability was 0.957.

And the relative viability (Sunitinib + Trametinib; first compound 0.02 µM)?
Its relative viability is 0.718.

And the relative viability (Sunitinib + Trametinib; first compound 0.06325 µM)?
The relative viability was 0.715.

What about the relative viability (Sunitinib + Trametinib; first compound 0.2 µM) of the same cell line?
The relative viability was 0.941.

What about the relative viability (Sunitinib + Trametinib; first compound 0.6325 µM) of the same cell line?
The relative viability was 0.795.

What about the relative viability (Sunitinib + Trametinib; first compound 2 µM) of the same cell line?
The relative viability was 0.766.

And the relative viability (Sunitinib + Palbociclib; first compound 0.02 µM)?
Its relative viability is 0.517.

And the relative viability (Sunitinib + Palbociclib; first compound 0.06325 µM)?
The relative viability was 0.592.

What about the relative viability (Sunitinib + Palbociclib; first compound 0.2 µM) of the same cell line?
Its relative viability is 0.576.

And the relative viability (Sunitinib + Palbociclib; first compound 0.6325 µM)?
Its relative viability is 0.587.

And the relative viability (Sunitinib + Palbociclib; first compound 2 µM)?
Its relative viability is 0.604.

What about the relative viability (Sunitinib + Luminespib; first compound 0.02 µM) of the same cell line?
Its relative viability is 0.183.

What about the relative viability (Sunitinib + Luminespib; first compound 0.06325 µM) of the same cell line?
The relative viability was 0.22.

And the relative viability (Sunitinib + Luminespib; first compound 0.2 µM)?
Its relative viability is 0.172.

What about the relative viability (Sunitinib + Luminespib; first compound 0.6325 µM) of the same cell line?
The relative viability was 0.192.

What about the relative viability (Sunitinib + Luminespib; first compound 2 µM) of the same cell line?
Its relative viability is 0.194.

What about the relative viability (Sunitinib + Foretinib; first compound 0.02 µM) of the same cell line?
Its relative viability is 0.834.

What about the relative viability (Sunitinib + Foretinib; first compound 0.06325 µM) of the same cell line?
Its relative viability is 0.934.

And the relative viability (Sunitinib + Foretinib; first compound 0.2 µM)?
Its relative viability is 0.865.

What about the relative viability (Sunitinib + Foretinib; first compound 0.6325 µM) of the same cell line?
The relative viability was 0.966.

And the relative viability (Sunitinib + Foretinib; first compound 2 µM)?
Its relative viability is 0.834.

What about the relative viability (Sunitinib + OSI-027; first compound 0.02 µM) of the same cell line?
Its relative viability is 0.597.

And the relative viability (Sunitinib + OSI-027; first compound 0.06325 µM)?
Its relative viability is 0.715.

What about the relative viability (Sunitinib + OSI-027; first compound 0.2 µM) of the same cell line?
The relative viability was 0.665.

What about the relative viability (Sunitinib + OSI-027; first compound 0.6325 µM) of the same cell line?
Its relative viability is 0.584.

What about the relative viability (Sunitinib + OSI-027; first compound 2 µM) of the same cell line?
Its relative viability is 0.614.

And the relative viability (Sunitinib + Tozasertib; first compound 0.02 µM)?
Its relative viability is 0.432.

And the relative viability (Sunitinib + Tozasertib; first compound 0.06325 µM)?
Its relative viability is 0.58.

And the relative viability (Sunitinib + Tozasertib; first compound 0.2 µM)?
The relative viability was 0.648.

What about the relative viability (Sunitinib + Tozasertib; first compound 0.6325 µM) of the same cell line?
Its relative viability is 0.525.

And the relative viability (Sunitinib + Tozasertib; first compound 2 µM)?
Its relative viability is 0.328.

What about the relative viability (Sunitinib + Dasatinib; first compound 0.02 µM) of the same cell line?
The relative viability was 0.418.

What about the relative viability (Sunitinib + Dasatinib; first compound 0.06325 µM) of the same cell line?
The relative viability was 0.722.

And the relative viability (Sunitinib + Dasatinib; first compound 0.2 µM)?
The relative viability was 0.634.

What about the relative viability (Sunitinib + Dasatinib; first compound 0.6325 µM) of the same cell line?
Its relative viability is 0.717.

And the relative viability (Sunitinib + Dasatinib; first compound 2 µM)?
Its relative viability is 0.605.

And the relative viability (Sunitinib + Phenformin; first compound 0.02 µM)?
The relative viability was 0.579.

And the relative viability (Sunitinib + Phenformin; first compound 0.06325 µM)?
Its relative viability is 0.79.

And the relative viability (Sunitinib + Phenformin; first compound 0.2 µM)?
The relative viability was 0.641.

And the relative viability (Sunitinib + Phenformin; first compound 0.6325 µM)?
Its relative viability is 0.894.

What about the relative viability (Sunitinib + Phenformin; first compound 2 µM) of the same cell line?
Its relative viability is 0.581.

And the relative viability (Sunitinib + AZD7762; first compound 0.02 µM)?
The relative viability was 0.633.

What about the relative viability (Sunitinib + AZD7762; first compound 0.06325 µM) of the same cell line?
The relative viability was 0.676.

What about the relative viability (Sunitinib + AZD7762; first compound 0.2 µM) of the same cell line?
The relative viability was 0.664.

And the relative viability (Sunitinib + AZD7762; first compound 0.6325 µM)?
Its relative viability is 0.67.

What about the relative viability (Sunitinib + AZD7762; first compound 2 µM) of the same cell line?
Its relative viability is 0.648.

And the relative viability (Sunitinib + Pemetrexed; first compound 0.02 µM)?
The relative viability was 0.466.

And the relative viability (Sunitinib + Pemetrexed; first compound 0.06325 µM)?
Its relative viability is 0.495.

What about the relative viability (Sunitinib + Pemetrexed; first compound 0.2 µM) of the same cell line?
The relative viability was 0.491.

And the relative viability (Sunitinib + Pemetrexed; first compound 0.6325 µM)?
Its relative viability is 0.5.

And the relative viability (Sunitinib + Pemetrexed; first compound 2 µM)?
Its relative viability is 0.501.

And the relative viability (Sunitinib + Decitabine; first compound 0.02 µM)?
Its relative viability is 0.44.

And the relative viability (Sunitinib + Decitabine; first compound 0.06325 µM)?
The relative viability was 0.364.

What about the relative viability (Sunitinib + Decitabine; first compound 0.2 µM) of the same cell line?
Its relative viability is 0.394.

And the relative viability (Sunitinib + Decitabine; first compound 0.6325 µM)?
The relative viability was 0.407.

What about the relative viability (Sunitinib + Decitabine; first compound 2 µM) of the same cell line?
The relative viability was 0.433.

And the relative viability (Sunitinib + Vorinostat; first compound 0.02 µM)?
The relative viability was 0.516.

And the relative viability (Sunitinib + Vorinostat; first compound 0.06325 µM)?
Its relative viability is 0.626.

What about the relative viability (Sunitinib + Vorinostat; first compound 0.2 µM) of the same cell line?
Its relative viability is 0.541.

What about the relative viability (Sunitinib + Vorinostat; first compound 0.6325 µM) of the same cell line?
Its relative viability is 0.604.

What about the relative viability (Sunitinib + Vorinostat; first compound 2 µM) of the same cell line?
Its relative viability is 0.597.

And the relative viability (Sunitinib + Olaparib; first compound 0.02 µM)?
The relative viability was 0.794.

And the relative viability (Sunitinib + Olaparib; first compound 0.06325 µM)?
Its relative viability is 1.04.

What about the relative viability (Sunitinib + Olaparib; first compound 0.2 µM) of the same cell line?
The relative viability was 0.847.

What about the relative viability (Sunitinib + Olaparib; first compound 0.6325 µM) of the same cell line?
The relative viability was 1.1.

What about the relative viability (Sunitinib + Olaparib; first compound 2 µM) of the same cell line?
The relative viability was 0.945.
